In patent publication US20110190270A1, “METHODS OF TREATING THROMBOEMBOLIC DISORDERS” (MONASH UNIVERSITY, priority 2008, published 2011):

Experiments:
[1] = test system: thrombi in mesenteric post-capillary venules; assay: intravital microscopy of thrombus growth and stability after vessel injury; assay type: in vivo, mice; conditions: for effect on thrombus stability and embolization in vivo (in words): local microinjection after thrombus formation; for effect on thrombus stability and embolization in vivo (in words) / mean reduction in thrombus size: needle puncture, no lepirudin; for stability of the primary hemostatic plug (in words): mice pretreated with lepirudin 50 mg/kg i.v., local infusion into formed thrombus; for mean reduction in thrombus size: local administration into the microcirculation after thrombus formation
Procedure: The development and consolidation of thrombi in response to vessel injury was monitored using intravital microscopy. C57BL6 or PAR4 deficient (15 g-18 g) mice were anaesthetised using sodium pentobarbitone (60 mg/kg), and the mesentery exteriorized through a midline abdominal incision. Body temperature was maintained during the procedure using an infrared heat lamp, and exposed mesenteric vessels (50-160 μm diameter) were hydrated using warm saline. Vessel injury was achieved either through vessel puncture using a microinjection needle (20-30 μm tip diameter) connected to a micromanipulator (Eppendorf), or through application of 6% FeCl3-soaked filter paper (8 sec). Accrual of platelets to the area of injury was recorded in real-time as described for in vitro flow assays (above). […] (25 mM stock solution, 2.5 μl total injection volume), or an equivalent volume of vehicle (DMSO), were locally infused into developing thrombi via the microinjection needle (release rate 2-3 μl/min, 3 cycles). To prevent fibrin generation, in some experiments, lepirudin (50 mg/kg) was administered via intravenous injection prior to induction of injury and subsequent injection of inhibitors. Complete abolition of fibrin formation at this concentration of lepirudin was confirmed by histology using Carstair's stain. The surface area of thrombi in vivo was measured using Image J, with analysis of every 5th frame (at 1 frame/sec) over 4-5 mins. Change in surface area was expressed as fold-increase or decrease over the original surface area (=1).

[2] = test system: platelet thrombi formed from human whole blood; assay: in vitro thrombus consolidation under flow on Type I collagen; assay type: cell-based; conditions: for effect of fibrin/thrombin inhibition on contraction of platelet thrombi (in words): whole blood, 1800 s-1, GPRP 280 μM in native blood, hirudin-anticoagulated, lepirudin 1600 U/ml + enoxaparine 400 U/ml
Procedure: Flow-based thrombus formation assays on a bovine fibrillar Type I collagen matrix were performed at 37° C. in the absence of fibrin. Briefly, […] (DMSO), Blebbistatin (+) (200 μM), Blebbistatin (−) (200 μM), EGTA/Mg^2+ (2 mM/1 mM), HA1077 (80 μM), H1152 (40 μM) or 2-APB (200 μM) (10 mins, 37° C.) prior to perfusion through fibrillar type I collagen-coated microcapillary tubes (2.0 mg/ml) at 1800 s^−1 for 5 mins. Thrombus formation was observed using an inverted Leica DMIRB microscope (Leica Microsystems, Wetzlar, Germany) with a 63× water objective (1.2 numeric aperture (NA)), and recorded in real-time using a Dage-MTI charge-coupled device (CCD) camera 300 ETRCX (Dage-MTI, Michigan City, Ind.).
Two-dimensional quantification of thrombus consolidation—Quantification of thrombus contraction was performed by ‘spiking’ whole blood with 3% DiIC12-labelled platelets prior to perfusion. Spiked whole blood was then perfused over collagen matrices as described above, and DIC/fluorescence images were recorded in real-time as described above, for off-line analysis. Studies examining the effect of 2-APB on consolidation were performed by perfusing untreated whole blood across microslides for 30 seconds to establish a nucleating thrombus, followed by perfusion of inhibitor treated blood. […] The distance between 2 fluorescently-labelled platelets in a given thrombus was measured in […] every 30 sec over 5 min. Results are expressed as percentage decrease in the distance between 2 platelets incorporated into a thrombus prior to 1 minute of flow, with the distance between platelets at 1 minute taken as 100%.
3D volumetric thrombus analysis—For analysis of thrombus volume, whole blood was labelled with DiIC12 (1 μM) prior to perfusion. Thrombi were formed as described above, and images captured in real-time using an inverted Leica DMIRB confocal microscope, with […] sections acquired every 30 seconds over 4-5 min. Analysis of thrombus volume was performed using Metamorph 6 software.

[3] = test system: platelet-mediated fibrin clot retraction in citrated PRP; assay: platelet-mediated fibrin clot retraction; assay type: cell-based, human; conditions: thrombin 1 U/ml, 2-APB 200 μM, EGTA/Mg2+ 2 mM/1 mM, H1152 40 μM, HA1077 80 μM
Procedure: Washed platelets were prepared from acid-citrate dextrose (ACD)-anticoagulated whole blood, with the inclusion of Lepirudin (800 U/ml) in the Platelet Washing Buffer and Apyrase (0.02 U/ml) in the Tyrode's Buffer.
Platelet-mediated fibrin-dependent clot retraction was measured using citrated PRP^9,10. Results are expressed as, the percentage of serum remaining in the tube following clot removal, after subtracting the volumes obtained for c7E3 (negative control) samples.

non-muscle myosin II = conditions: read-out: IC50, inhibitor of non-muscle myosin II; cited from earlier work
[4] = test system: occlusive blood clot in the carotid artery; assay: carotid artery occlusion model, clot lysis and vascular reperfusion; assay type: in vivo, mice; conditions: regimens A-H of FIGS. 8 and 9, blood flow monitored 60 minutes
Procedure: Mice were anaesthetised and minor surgery performed to expose to the carotid artery and jugular vein. A Doppler flow probe was placed around the carotid artery to monitor blood flow through this blood vessel, and a catheter placed in the jugular vein to administer drugs. A blood clot was formed in the carotid artery of the mouse through the delivery of a small electric current (4 mA for 1.25 min^g), resulting in complete blockage of blood flow through the vessel (blood flow=0 mls/min), as measured by the flow probe. After vessel blockade was established, various combinations of t-PA, urokinase, heparin, hirudin, HA1077 and Y27632 were administered, using concentrations and regimens indicated (A-H in FIGS. 8 and 9) and examined for their efficacy to dissolve blood clots and restore blood flow. Blood flow was monitored in mice receiving each drug combination for a further 60 minutes, and blood flow measurements recorded using computer software.

[5] = H1152 40 μM, Blebbistatin (−) 200 μM, lepirudin-anticoagulated human whole blood, 1800 s-1
[6] = GPRP added to native whole blood, 1800 s-1

For `Cc1ccc2c(c1)C(=O)C1(O)CCN(c3ccccc3)C1=N2` (single isomer, unassigned) [inactive blebbistatin enantiomer], the “effect on thrombus stability and embolization in vivo (in words)” value [1] was “no effect” and the “stability of the primary hemostatic plug (in words)” value [1] was “no adverse effect”.

For `NCCOB(c1ccccc1)c1ccccc1` [2-APB, 2-aminoethoxydiphenyl borate], the “reduction of thrombus contraction” value ([2]; 2-APB 200 μM, perfused after 30 sec of untreated blood, lepirudin-anticoagulated human whole blood, 1800 s-1) was 32% and the “fibrin clot retraction (in words)” value [3] was “abolished clot retraction”.

For `Cc1ccc2c(c1)C(=O)C1(O)CCN(c3ccccc3)C1=N2` (stereo not drawn) [Blebbistatin], the “stability of thrombi formed in vitro (in words)” value [2, 5] was “highly unstable platelet thrombi”, the “effect on thrombus contraction / consolidation (in words)” value ([2]; HA1077 80 μM, Blebbistatin (−) 200 μM, lepirudin-anticoagulated human whole blood, 1800 s-1) was “tight packing of platelets did not occur” and the “thrombus behaviour on cessation of administration” value ([1]; after stopping local administration) was “thrombi rapidly reformed”. For the same compound, the “mean reduction in thrombus size” value [1] was 38%, the “stability of the primary hemostatic plug (in words)” value ([1]; listed as active enantiomer of blebbistatin) was “near complete embolization of the formed thrombus” and the IC50 (non-muscle myosin II) was about 4 µM.

In the case of `O=C(O)CN(CCOCCOCCN(CC(=O)O)CC(=O)O)CC(=O)O` [EGTA], the “reduction of the rate of thrombus contraction” value ([2]; EGTA/Mg2+ 2 mM/1 mM, lepirudin-anticoagulated human whole blood, 1800 s-1, at 5 mins perfusion) is reported as “up to 52%” and the “fibrin clot retraction (in words)” value [3] is reported as “no significant inhibitory effect”.

In the case of `Cc1cncc2cccc(S(=O)(=O)N3CCCNC[C@@H]3C)c12.Cl.Cl` [H1152, (S)-(+)-2-methyl-1-[(4-methyl-5-isoquinolinyl)sulfonyl]homopiperazin, 2HCl], the “stability of thrombi formed in vitro (in words)” value [2, 5] is reported as “less stable thrombi”, the “decrease in thrombus contraction” value ([2]; H1152 40 μM, lepirudin-anticoagulated human whole blood, 1800 s-1, after 5 mins perfusion) is reported as 88% and the “fibrin clot retraction (in words)” value [3] is reported as “neither inhibitor had any significant effect”. For the same compound, the “mean reduction in thrombus size” value [1] was 34% and the “effect on thrombus stability and embolization in vivo (in words)” value [1] was “more effective than the IP3 receptor antagonist APB”.

For `Cl.O=S(=O)(c1cccc2cnccc12)N1CCCNCC1` [HA1077, 1-(5-isoquinolinesulphonyl)-homopiperazine HCl], the “fibrin clot retraction (in words)” value [3] was “neither inhibitor had any significant effect” and the “clot lysis and re-establishment of blood flow (in words)” value [4] was “unable to lyse blood clots and re-establish blood flow”.

In the case of Gly-Pro-Arg-Pro peptide [GPRP], the “formation of fibrin polymers” value [2, 6] is reported as “inhibited the formation of individual fibrin polymers”, the platelet thrombus growth [2, 6] is reported as “no inhibitory effect” and the “effect of fibrin/thrombin inhibition on contraction of platelet thrombi (in words)” value [2] is reported as “unaltered”.

In the case of lepirudin, the “effect of fibrin/thrombin inhibition on contraction of platelet thrombi (in words)” value [2] is reported as “underwent a prominent contractile phase” and the “thrombus stability in the absence of thrombin” value ([1]; wild type mice pretreated with lepirudin 50 mg/kg prior to vessel injury) is reported as “thrombi were more unstable”.
